# Calls of active or inactive are those of the source.
# How the values were obtained:
# [1] = molecular target: FAD-linked sulfhydryl oxidase ALR (Homo sapiens, UniProt P55789); test: ALR-catalysed DTT oxidation blockers – biochemical, H2O2 detection, luminescence, cherry-pick, dose response (AID 493248)
# [2] = microbe, parasite or virus in culture; format: functional; conditions: Mycobacterium tuberculosis
# [3] = molecular target: T1, Calpain-2 catalytic subunit (Sus scrofa, UniProt P43367); test: m-calpain protease blockers, concentration series – biochemical, fluorogenic peptide substrate, dose response (AID 1420); format: functional
# T1 sequence (P43367 whole entry): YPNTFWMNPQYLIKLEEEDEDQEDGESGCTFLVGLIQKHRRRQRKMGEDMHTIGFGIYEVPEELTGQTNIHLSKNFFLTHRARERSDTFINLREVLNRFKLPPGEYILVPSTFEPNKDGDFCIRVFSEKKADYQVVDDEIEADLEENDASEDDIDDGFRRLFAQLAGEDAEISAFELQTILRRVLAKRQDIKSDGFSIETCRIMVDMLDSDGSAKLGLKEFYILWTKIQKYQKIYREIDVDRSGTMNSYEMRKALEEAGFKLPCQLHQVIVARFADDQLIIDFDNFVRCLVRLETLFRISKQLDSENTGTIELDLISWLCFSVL
# [4] = molecular target: T2, Corticotropin-releasing factor receptor 2/Corticotropin-releasing factor-binding protein (Homo sapiens, UniProt P24387+Q13324); test: Dose Response confirmation of uHTS hits for small molecule antagonists of the CRF-binding protein and CRF-R2 receptor complex.; format: functional; conditions: read-out: IC50_Mean
# T2 sequence (Q13324 whole entry): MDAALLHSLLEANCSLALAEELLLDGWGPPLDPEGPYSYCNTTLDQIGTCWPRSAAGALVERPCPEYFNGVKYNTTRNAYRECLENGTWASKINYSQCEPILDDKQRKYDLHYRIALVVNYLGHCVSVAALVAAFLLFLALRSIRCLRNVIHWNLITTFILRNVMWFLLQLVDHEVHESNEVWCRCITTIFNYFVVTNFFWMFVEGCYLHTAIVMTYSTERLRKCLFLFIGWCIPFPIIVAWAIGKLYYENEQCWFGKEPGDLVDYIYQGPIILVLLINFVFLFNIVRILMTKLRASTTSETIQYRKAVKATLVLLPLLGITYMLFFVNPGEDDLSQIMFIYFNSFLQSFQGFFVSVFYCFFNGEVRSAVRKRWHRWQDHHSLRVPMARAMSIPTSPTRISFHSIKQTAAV
# T2 sequence (P24387 whole entry): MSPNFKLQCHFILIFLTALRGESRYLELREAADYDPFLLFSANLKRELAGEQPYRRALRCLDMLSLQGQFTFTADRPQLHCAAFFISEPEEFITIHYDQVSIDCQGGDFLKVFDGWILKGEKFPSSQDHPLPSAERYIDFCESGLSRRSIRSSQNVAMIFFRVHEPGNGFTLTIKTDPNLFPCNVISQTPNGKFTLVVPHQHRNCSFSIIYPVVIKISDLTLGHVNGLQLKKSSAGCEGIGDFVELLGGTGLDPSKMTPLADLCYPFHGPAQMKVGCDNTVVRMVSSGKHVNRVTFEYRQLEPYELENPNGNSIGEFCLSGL
# [5] = molecular target: T2, Corticotropin-releasing factor receptor 2/Corticotropin-releasing factor-binding protein; test: activators of CRF receptor 2 with binding protein – uHTS hits, confirmation (AID 602473); format: functional; conditions: read-out: EC50_Mean
# cells = format: functional
# Cytochrome P450 2C19 = Cytochrome P450 2C19 (Homo sapiens, UniProt P33261); test: Cytochrome panel assay with activity outcomes. Panel member name: p450-cyp2c19 Compounds with AC50 equal or less than 10 uM are considered active; format: functional
# [6] = molecular target: Luciferin 4-monooxygenase (Photinus pyralis, UniProt P08659); test: inhibition of purified Photinus pyralis luciferase – biochemical, luminescence, dose response (AID 1891)
# [7] = Luminescence Cell-Based Dose Confirmation HTS to Identify Inhibitors of Platelet Dense Granule Release. [Related pubchem assays: 1663 (Primary HTS), 1678 (Summary of Project)]; format: functional
# [8] = Trypanosoma cruzi growth suppression in host cells – NIH3T3 host cells, beta-gal luminescence, confirmation (AID 2044); format: functional, cell-based;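 also: intracellular parasites grown in NIH/3T3 mouse fibroblasts as host cells; luminescent beta-galactosidase reporter signal from transgenic T. cruzi replicating inside host cells; inhibitors lower the luminescence signal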
# [9] = NIH3T3 cell viability loss – ATP luminescence, mouse fibroblasts, counter-screen, dose response (AID 2010); format: functional, cell-based;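 also: cells exposed to compound for about 90 hours before reading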
# [10] = molecular target: T3, Heat shock factor protein 1 (Mus musculus, UniProt P38532); test: decrease of HSF1-responsive luciferase luminescence – cell-based, NIH3T3, dose retest, confirmation (AID 2382); format: functional;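 also: NIH3T3 fibroblasts with HSF1-driven luciferase reporter stressed by proteasome inhibitor MG132; luminescence from HSF1-driven luciferase expression after 8 hours of MG132 stress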
# T3 sequence (P38532 whole entry): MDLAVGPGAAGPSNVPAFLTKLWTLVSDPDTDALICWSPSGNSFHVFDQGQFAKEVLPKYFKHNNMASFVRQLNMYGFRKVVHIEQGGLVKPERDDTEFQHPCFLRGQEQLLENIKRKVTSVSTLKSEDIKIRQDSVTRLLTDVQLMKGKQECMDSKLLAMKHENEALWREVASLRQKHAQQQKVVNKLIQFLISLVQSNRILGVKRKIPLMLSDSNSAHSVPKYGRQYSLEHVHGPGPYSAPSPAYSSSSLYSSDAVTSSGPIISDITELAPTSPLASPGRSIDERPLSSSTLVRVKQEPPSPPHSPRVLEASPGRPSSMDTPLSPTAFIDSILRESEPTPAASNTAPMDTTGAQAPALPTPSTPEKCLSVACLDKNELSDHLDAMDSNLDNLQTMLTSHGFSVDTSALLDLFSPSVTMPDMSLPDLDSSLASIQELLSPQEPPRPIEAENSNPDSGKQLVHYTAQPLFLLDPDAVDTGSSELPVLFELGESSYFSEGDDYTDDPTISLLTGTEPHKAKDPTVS
# [11] = Luminescence Cell-Based Dose Confirmation HTS to Identify Activators of 5'UTR Stem-Loop Driven Alpha-Synuclein mRNA Translation in H4 Neuroglioblastoma Cells. [Related pubchem assays: 1829 (Project Summary), 1814 (Primary HTS)]; format: functional
# [12] = Luminescence Cell-Based Dose Response HTS to Identify Activators of Luciferase Translation or Activity in H4 […] Cells. [Related pubchem assays: 1829 (Project Summary), 1814 (Primary HTS)]; format: functional
# H4 = test: Luminescence Cell-Based Dose Response HTS to Identify Activators of 5'UTR Stem-Loop Driven Prion Protein mRNA Translation in H4 Neuroglioblastoma Cells. [Related pubchem assays: 1829 (Project Summary), 1814 (Primary HTS)]; format: functional; conditions: Homo sapiens
# FAD-linked sulfhydryl oxidase ALR, sequence (P55789 whole entry): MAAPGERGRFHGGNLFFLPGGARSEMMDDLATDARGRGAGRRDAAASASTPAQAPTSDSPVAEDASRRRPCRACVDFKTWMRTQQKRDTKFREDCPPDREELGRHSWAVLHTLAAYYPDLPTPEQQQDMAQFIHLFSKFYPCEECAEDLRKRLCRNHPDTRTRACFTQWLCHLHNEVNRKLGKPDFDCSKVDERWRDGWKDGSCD
# Luciferin 4-monooxygenase, sequence (P08659 whole entry): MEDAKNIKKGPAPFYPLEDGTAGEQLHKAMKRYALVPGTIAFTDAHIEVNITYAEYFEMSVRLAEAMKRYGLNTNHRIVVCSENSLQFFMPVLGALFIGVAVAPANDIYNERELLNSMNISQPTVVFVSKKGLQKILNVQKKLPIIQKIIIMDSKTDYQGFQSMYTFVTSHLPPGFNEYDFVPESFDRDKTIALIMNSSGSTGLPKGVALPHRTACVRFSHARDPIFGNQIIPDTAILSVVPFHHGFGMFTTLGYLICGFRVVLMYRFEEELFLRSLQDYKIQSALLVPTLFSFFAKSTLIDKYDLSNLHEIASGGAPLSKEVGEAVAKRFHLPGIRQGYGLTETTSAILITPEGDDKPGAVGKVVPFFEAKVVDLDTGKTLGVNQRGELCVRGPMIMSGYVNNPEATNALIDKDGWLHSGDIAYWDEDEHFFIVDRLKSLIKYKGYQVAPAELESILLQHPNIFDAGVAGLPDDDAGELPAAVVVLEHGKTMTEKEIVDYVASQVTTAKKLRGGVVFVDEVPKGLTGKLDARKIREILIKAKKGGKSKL
# Cytochrome P450 2C19, sequence (P33261 whole entry): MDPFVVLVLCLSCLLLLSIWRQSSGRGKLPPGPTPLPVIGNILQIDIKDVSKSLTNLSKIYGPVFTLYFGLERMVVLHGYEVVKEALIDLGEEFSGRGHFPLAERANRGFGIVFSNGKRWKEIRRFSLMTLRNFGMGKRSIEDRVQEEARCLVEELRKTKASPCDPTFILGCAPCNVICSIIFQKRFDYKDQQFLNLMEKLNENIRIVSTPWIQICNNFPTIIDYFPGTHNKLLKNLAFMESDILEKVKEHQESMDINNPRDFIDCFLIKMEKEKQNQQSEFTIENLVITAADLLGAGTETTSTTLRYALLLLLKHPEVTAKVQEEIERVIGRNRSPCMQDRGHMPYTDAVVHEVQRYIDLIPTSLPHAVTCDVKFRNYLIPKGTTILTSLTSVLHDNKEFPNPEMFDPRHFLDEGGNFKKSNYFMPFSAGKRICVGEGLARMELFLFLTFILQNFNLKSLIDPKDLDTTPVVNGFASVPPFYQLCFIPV
smiles,measurement,setting,value
Cc1ccc(-n2c(-c3ccc(Cl)cc3)n[nH]c2=S)c(C)c1,AC50,[1],2.08 µM (active)
CC(=O)NCCc1c(C)n(Cc2ccccc2)c2ccccc12,AC50,[1],3.02 µM (active)
Nc1c(C(=O)OCC2CCCO2)c2nc3ccccc3nc2n1C1CCCC1 (centres undefined),CC50,[2],38.3 µM (active)
COc1ccc(/C=C/C(=O)NC(=S)Nc2cc3oc4ccccc4c3cc2OC)cc1,IC50,[3],> 50 µM (not active)
COc1ccccc1N1CCN(CC(=O)Nc2c(C)n[nH]c2C)CC1,IC50,[4],> 47.1 µM (inactive)
same,EC50,[5],> 53 µM (inactive)
COC(=O)COc1ccc2c(-c3cccc([N+](=O)[O-])c3)cc(=O)oc2c1,IC50,cells,2.9 µM (active)
same,AC50,Cytochrome P450 2C19,0.251 µM (inconclusive)
COc1cc2cnc(-c3ccccc3)c(-c3ccc(C(F)(F)F)cc3)c2cc1OC,CC50,[2],> 40 µM (active)
Cc1ccc(C(=O)NCCCNc2ccccc2[N+](=O)[O-])cc1,IC50,[3],25.2 µM (not active)
CC1CC(N(C(=O)c2ccco2)c2ccccc2)c2ccccc2N1 (centres undefined),AC50,[1],0.465 µM (active)
O=C(Cn1cc(C(=O)c2ccco2)c2ccccc21)Nc1ccccc1,IC50,[3],3.26 µM (not active)
O=C(Nc1nccs1)C1CCN(S(=O)(=O)c2ccc(Cl)c(C(F)(F)F)c2)CC1,EC50,[6],> 112 µM (not active)
same,EC50,[7],> 112 µM (not active)
COc1ccc(C2=NN(C(=O)CSC3=NN4CCCC(=O)N=C4S3)C(c3cccc(OC)c3OC)C2)cc1 (centres undefined),EC50,[6],> 112 µM (not active)
same,EC50,[7],> 112 µM (not active)
CCN(CCNC(=O)c1cccc(N2CCCC2=O)c1)c1ccccc1,AC50,[1],0.508 µM (active)
COc1ccc(OC(=O)c2cc3cc(Cl)ccc3oc2=O)cc1,IC50,cells,7.33 µM (active)
C=CCN(C(=O)CSc1nc2c(sc3ccccc32)c(=O)n1CCN(CC)CC)c1ccccc1,EC50,[8],0.606 µM (active)
same,CC50,[2],31.9 µM (active)
same,EC50,[9],11 µM (active)
COc1ccc(C(=N)NOC(=O)Cc2ccccc2[N+](=O)[O-])cc1,IC50,[3],10.1 µM (not active)
CCSc1nnc(NC(=O)Cc2cccc(OC)c2)s1,IC50,[3],2.28 µM (not active)
CCN(CC)c1nc(NN)nc(Nc2ccc(C)c(Cl)c2)n1,CC50,[2],31.8 µM (active)
NS(=O)(=O)c1ccc(NC(=O)COC(=O)C23CC4CC(CC(C4)C2)C3)cc1,IC50,[3],3.33 µM (not active)
CCCc1cc(-c2nnc(S)n2Cc2ccccc2)cs1,IC50,[3],22.1 µM (not active)
Cc1ccc(C)n1-c1ccc(C(=O)NN=C2CCCC2)cc1,EC50,[6],> 112 µM (not active)
same,EC50,[7],> 112 µM (not active)
COc1cc(-c2csc(CCn3nc(C)cc3C)n2)cc(OC)c1OC,AC50,[1],0.059 µM (active)
COc1cc(OC)nc(Oc2ccccc2C(=O)Oc2ccc(Cl)cc2)n1,EC50,[10],> 195 µM (not active)
same,CC50,[2],> 40 µM (active)
CSc1nc2sc(-c3ccccc3)cc2c(=O)n1N,EC50,[6],0.191 µM (active)
same,EC50,[7],< 0.701 µM (active)
CCc1noc(C)c1C(=O)Nc1cc(Cl)ccc1N1CCCC1,AC50,[1],1.15 µM (active)
CC(=O)c1cccc(NC(=O)c2c(F)c(F)c(F)c(F)c2F)c1,IC50,[3],17.2 µM (not active)
CC1(C)Cc2c(sc3[nH]c(=O)n(CC(=O)NCC4CCCO4)c(=O)c23)CO1 (centres undefined),IC50,[4],> 47.1 µM (inactive)
same,EC50,[5],> 53 µM (inactive)
COc1ccc(Cc2nnc(NC(=O)c3c(-c4ccccc4)noc3C)s2)cc1,EC50,[6],> 112 µM (not active)
same,EC50,[7],> 112 µM (not active)
CCOc1ccc(C(=O)Nc2nnc(C3=COCCO3)o2)cc1,IC50,cells,3.65 µM (active)
Oc1ccc(N=Nc2n[nH]c(-c3ccc(Cl)cc3)n2)cc1,EC50,[11],> 120 µM (not active)
same,EC50,[12],8.25 µM (active)
same,EC50,H4,> 120 µM (not active)
same,CC50,[2],28.1 µM (active)
O=C(CCCc1c[nH]c2ccccc12)N1CCCCCC1,EC50,[11],8.16 µM (active)
same,EC50,[12],7.67 µM (active)
same,EC50,H4,34.2 µM (active)
Cc1nc(NC(=O)c2ccccc2)sc1C1(C)CC(c2ccc(OC(F)(F)F)cc2)=NO1 (centres undefined),CC50,[2],> 40 µM (active)
O=C(NCc1cccs1)c1ccc(C[S+]([O-])Cc2cccc(Cl)c2)o1 (centres undefined),IC50,[4],> 47.1 µM (inactive)
same,EC50,[5],> 53 µM (inactive)
Cc1ccc(NC(NC(=O)c2ccccn2)C(Cl)(Cl)Cl)cc1 (centres undefined),AC50,[1],0.731 µM (active)
CCc1cc(C(=O)NNC(=O)CCl)sc1C,CC50,[2],23.8 µM (active)
Cc1cccc(NC(=O)CN2CCC(C(=O)c3ccc4c(c3)OCCO4)CC2)c1,EC50,[6],> 112 µM (not active)
same,EC50,[7],> 112 µM (not active)
CCCC1CC(C)(c2csc(Nc3ccc(OCC)cc3)n2)OC1=O (centres undefined),CC50,[2],> 40 µM (active)
COc1ccc(CC(=O)Nc2cccc(-c3cn4ccccc4n3)c2)cc1,EC50,[6],> 112 µM (not active)
same,EC50,[7],> 112 µM (not active)
COc1ccc(CN(CCc2c[nH]c3ccccc23)Cc2ccc(OC)cc2)cc1,IC50,[4],> 47.1 µM (inactive)
same,EC50,[5],> 53 µM (inactive)
O=C1CCC(C(=O)Nc2ccccc2N2CCOCC2)=NN1,IC50,[4],> 47.1 µM (inactive)
same,EC50,[5],> 53 µM (inactive)
CCOC(=O)N1CCN(C(=O)Cn2cnc3ccccc3c2=O)CC1,IC50,[4],> 47.1 µM (inactive)
same,EC50,[5],> 53 µM (inactive)
COC(=O)/C=c1/s/c(=C(\C#N)C(=O)NCc2ccco2)n(-c2ccccc2)c1=O,IC50,[4],> 47.1 µM (inactive)
same,EC50,[5],> 53 µM (inactive)
CSC(=S)N/N=C/c1ccccc1,CC50,[2],> 40 µM (active)
CCN(CC)c1ccc(/C=N\NC(=O)c2cccc3cc[nH]c23)cc1,IC50,[4],> 47.1 µM (inactive)
same,EC50,[5],> 53 µM (inactive)
CCNc1nc(NCC)nc(N/N=C/c2ccc(N(C)C)cc2)n1,AC50,[1],2.33 µM (active)
CCOC(=O)Cn1/c(=N/C(=O)CSC(C)=O)sc2ccccc21,EC50,[6],> 112 µM (not active)
same,EC50,[7],> 112 µM (not active)
O=C(CCN1CCOCC1)c1ccc(Cl)cc1,EC50,[8],1.74 µM (active)
same,EC50,[9],> 60 µM (not active)
same,IC50,cells,22.5 µM (active)
COc1ccc(/C=N/NC(=O)c2cc[nH]n2)cc1CSc1ccccn1,AC50,[1],0.68 µM (active)
O=C(N/N=C/c1cccc(O)c1)N/N=C/c1cccc(O)c1,AC50,[1],0.797 µM (active)
C(=N\c1nc2ccccc2[nH]1)/c1cccs1,EC50,[6],16.2 µM (active)
same,EC50,[7],> 112 µM (not active)
NC(=S)N/N=C/c1coc2c(ccc3ccccc32)c1=O,IC50,[3],24.6 µM (not active)

# From ChEMBL document CHEMBL1201862, “PubChem BioAssay data set” (2004)
